Literature values in patent US20070232813A1, “Substituted Cyclohexadienals - Syntheses and Applications” (priority 2006, published 2007).

What was measured:
Roseobacter sp. = conditions: at 100 μg, agar diffusion assay
Sulfitobacter sp. = conditions: at 100 μg, agar diffusion assay

In the case of `CC(C)=CCCC1=CC=C(C=O)C(C)(CCC=C(C)C)C1` (centres unmarked) [citral dimer B, 6-Methyl-4,6-bis-(4-methyl-pent-3-enyl)-cyclohexa-1,3-dienecarbaldehyde], the “inhibition (anti-bacterial activity against Roseobacter sp.)” value (Roseobacter sp.) is given as 0.5 cm and the “inhibition (anti-bacterial activity against Sulfitobacter sp.)” value (Sulfitobacter sp.) is given as 1.0 cm.
